Experimental data as given in patent US8163779B2, “Glucokinase activators” (Takeda San Diego, Inc., priority 2006, dated 2012).

Target: T1, glucokinase (GK) (Homo sapiens, UniProt P35557)
T1 construct: I.D. No. 1 corresponds to residues 12-465 of glucokinase; made in house; host or cells: E. coli DH10b-T1r
T1 sequence (P35557 with tags, fused parts or gaps isoform P35557-2): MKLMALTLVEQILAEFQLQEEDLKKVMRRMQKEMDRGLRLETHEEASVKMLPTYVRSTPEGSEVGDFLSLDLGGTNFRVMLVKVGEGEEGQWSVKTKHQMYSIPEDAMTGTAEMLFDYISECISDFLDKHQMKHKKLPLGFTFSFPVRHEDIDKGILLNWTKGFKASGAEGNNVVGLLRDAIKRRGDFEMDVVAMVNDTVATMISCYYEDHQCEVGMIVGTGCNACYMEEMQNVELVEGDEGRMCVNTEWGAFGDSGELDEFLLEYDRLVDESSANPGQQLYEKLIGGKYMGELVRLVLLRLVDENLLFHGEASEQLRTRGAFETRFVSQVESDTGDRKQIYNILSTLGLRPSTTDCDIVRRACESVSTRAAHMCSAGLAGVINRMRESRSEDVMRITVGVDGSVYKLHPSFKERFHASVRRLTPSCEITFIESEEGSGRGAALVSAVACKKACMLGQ
Assay: enzymatic glucokinase activity assay (ATP consumption, KinaseGlo luminescence)
Type: biochemical
Details: recombinant GK residues 12-465; 5 μM ATP, 5 mM Glucose; Kact = concentration that displays 50% of the maximal increase in GK activity; read-out: pKact
Description: The activity of compounds as glucokinase activators may be assayed in vitro, in vivo or in a cell line. Provided below is an enzymatic glucokinase activity assay.
Purified glucokinase may be obtained as follows. […] SEQ.
The expression of recombinant glucokinase protein may be carried out by transformation and growth of DH10b-T1r E. coli cells incorporating the (pFLAG-CTC) plasmid in LB media. Protein expression can be induced in this system by the addition of IPTG to the culture medium.
Recombinant protein may be isolated from cellular extracts by passage over Sepharose Q Fast Flow resin (Pharmacia). This partially purified GK extract may then be further purified by a second passage over Poros HQ 10 (Applied Biosystems). The purity of GK may be determined on denaturing SDS-PAGE gel. Purified GK may then be concentrated to a final concentration of 20.0 mg/ml. After flash freezing in liquid nitrogen, the proteins can be stored at −78° C. in a buffer containing 25 mM TRIS-HCl pH 7.6, 50 mM NaCl, and 0.5 mM TCEP.
The activation properties of compounds for GK may be determined using a black 384-well-plate format under the following reaction conditions: 25 mM Hepes pH 7.2, 25 mM NaCl, 10 mM MgCl2, 0.01% Brij35, 1 mM DTT, 5 μM ATP, 5 mM Glucose 2% DMSO. The amount of ATP consumed may be determined quantitatively by addition of equal volume of luciferase reagent (luciferase+beetle luciferin—KinaseGlo Luminescent Kinase Assay kit from Promega). The luminescence intensity may be measured by using the Analyst HT from LJL Biosystems.
The reaction mixture may then be incubated at room temperature for 60 min, and quenched and developed by addition of 10 μL of luciferase reagent. Luminescence intensities of the resulting reaction mixtures may be measured after a 10 min incubation at room temperature. The luminescence intensity may be measured by using the Analyst HT from LJL Biosystems.
pKact values may be calculated by non-linear curve fitting of the compound concentrations and luminescence intensities to a standard inhibition/activation equation.

| SMILES | EC50 |
| --- | --- |
| Cc1cc(S(=O)(=O)Cc2cccs2)cc(=O)n1C(CC1CCOCC1)C(=O)Nc1ncc(Cl)s1 (stereo not drawn) [Example 134, N-(5-chlorothiazol-2-yl)-2-(6-methyl-2-oxo-4-(thiophen-2-ylmethylsulfonyl)pyridin-1(2H)-yl)-3-(tetrahydro-2H-pyran-4-yl)propanamide] | < 1.58 µM |
| CCS(=O)(=O)c1ccc(-c2cc(C)n([C@@H](CC3CCCCC3)C(=O)Nc3nccs3)c(=O)c2)cc1 [Example 102, (S)-3-cyclohexyl-2-(4-(4-(ethylsulfonyl)phenyl)-6-methyl-2-oxopyridin-1(2H)-yl)-N-(thiazol-2-yl)propanamide] | > 15.8 µM |
| Cc1cc(S(=O)(=O)C2CCCC2)cc(=O)n1[C@@H](CC1CCOCC1)C(=O)Nc1ccc(C(N)=O)cn1 [Example 182, (S)-6-(2-(4-(cyclopentylsulfonyl)-6-methyl-2-oxopyridin-1(2H)-yl)-3-(tetrahydro-2H-pyran-4-yl)propanamido)nicotinamide] | 1.58 to 15.8 µM |
| COc1ccc2nc(NC(=O)[C@@H](CC3CCOCC3)n3c(C)cc(S(=O)(=O)c4ccoc4C)cc3=O)sc2n1 [Example 63, (R)-N-(5-methoxythiazolo[5,4-b]pyridin-2-yl)-2-(6-methyl-4-(2-methylfuran-3-ylsulfonyl)-2-oxopyridin-1(2H)-yl)-3-(tetrahydro-2H-pyran-4-yl)propanamide] | > 15.8 µM |
| Cc1cc(S(=O)(=O)C2CCCC2)cc(=O)n1[C@@H](CC1CCOCC1)C(=O)Nc1ncc(F)s1 [Example 40, (S)-2-(4-(cyclopentylsulfonyl)-6-methyl-2-oxopyridin-1(2H)-yl)-N-(5-fluorothiazol-2-yl)-3-(tetrahydro-2H-pyran-4-yl)propanamide] | < 1.58 µM |
| Cn1ccc(NC(=O)[C@H](CC2CCOCC2)n2ccc(S(=O)(=O)C3CC3)cc2=O)n1 [Example 74, (S)-2-(4-(cyclopropylsulfonyl)-2-oxopyridin-1(2H)-yl)-N-(1-methyl-1H-pyrazol-3-yl)-3-(tetrahydro-2H-pyran-4-yl)propanamide] | 1.58 to 15.8 µM |

Continued, values first:

| EC50 | SMILES |
| --- | --- |
| 1.58 to 15.8 µM | CNS(=O)(=O)c1cccc(-c2cc(C)n([C@@H](CC3CCCCC3)C(=O)Nc3nccs3)c(=O)c2)c1 [Example 114, (S)-3-cyclohexyl-2-(6-methyl-4-(3-(N-methylsulfamoyl)phenyl)-2-oxopyridin-1(2H)-yl)-N-(thiazol-2-yl)propanamide] |
| < 1.58 µM | Cc1cc(S(=O)(=O)C2CC2)cc(=O)n1C(CC1CCCC1)C(=O)Nc1ncc(Cl)s1 (stereo not drawn) [Example 178, N-(5-chlorothiazol-2-yl)-3-cyclopentyl-2-(4-(cyclopropylsulfonyl)-6-methyl-2-oxopyridin-1(2H)-yl)propanamide] |
| 1.58 to 15.8 µM | O=C(Nc1ncc(F)s1)C(CC1CCOCC1)n1cc(Cl)c(S(=O)(=O)C2CCCC2)cc1=O (stereo not drawn) [Example 186, 2-(5-chloro-4-(cyclopentylsulfonyl)-2-oxopyridin-1(2H)-yl)-N-(5-fluorothiazol-2-yl)-3-(tetrahydro-2H-pyran-4-yl)propanamide] |
| > 15.8 µM | Cc1ccc(CC(C(=O)Nc2nccs2)n2c(C)cc(S(=O)(=O)C3CCCC3)cc2=O)cc1 (stereo not drawn) [Example 10, 2-(4-(cyclopentylsulfonyl)-6-methyl-2-oxopyridin-1(2H)-yl)-N-(thiazol-2-yl)-3-p-tolylpropanamide] |
| 1.58 to 15.8 µM | O=C(Nc1nc2ccc(F)cc2s1)C(CC1CCOCC1)n1ccc(S(=O)(=O)C2CC2)cc1=O (stereo not drawn) [Example 131, 2-(4-(cyclopropylsulfonyl)-2-oxopyridin-1(2H)-yl)-N-(6-fluorobenzo[d]thiazol-2-yl)-3-(tetrahydro-2H-pyran-4-yl)propanamide] |
| > 15.8 µM | COc1cccc(CC(C(=O)Nc2nccs2)n2c(C)cc(S(=O)(=O)C3CCCC3)cc2=O)c1 (stereo not drawn) [Example 20, 2-(4-(cyclopentylsulfonyl)-6-methyl-2-oxopyridin-1(2H)-yl)-3-(3-methoxyphenyl)-N-(thiazol-2-yl)propanamide] |
